Assay [1] relates to platelet-rich plasma (PRP), collagen-induced platelet aggregation. As to the kind of experiment: Collagen-stimulated platelet aggregation inhibition in human platelet-rich plasma. In kind it is cell-based. To be noted: 2 min, 2 min at 37° C. with compound. As to the method:
Platelet Aggregation Suppressing Action
Human blood was collected using a 3.13% solution of sodium citrate as an anticoagulant, in a volume 1/10 of the blood volume, and was centrifuged at 180 g for 10 minutes to separate platelet-rich plasma (PRP) from the blood. The PRP in the upper layer was isolated, and then the lower layer was centrifuged at 1600 g for 10 minutes to isolate the platelet-poor plasma (PPP) in the upper layer. 1 μL of a solution of the compound of the Examples) was added to 200 μL of the PRP, and the mixture was allowed to stand for 2 minutes at 37° C. Then, 2 μL of collagen was added thereto, so as to induce platelet aggregation. The rate of platelet aggregation was measured using a PAM-12C (SSR Engineering). By taking the light transmittance of the PPP as the value indicating 100% aggregation, the rates of platelet aggregation at various concentrations of the compound of the Examples were determined, and the IC50 value was calculated.

The target of assay [2] is T1, COX-1 (Ovis aries, UniProt P05979).
T1 construct: purchased Cayman Chemical Company 560101 and 560121
T1 sequence (P05979 25-600): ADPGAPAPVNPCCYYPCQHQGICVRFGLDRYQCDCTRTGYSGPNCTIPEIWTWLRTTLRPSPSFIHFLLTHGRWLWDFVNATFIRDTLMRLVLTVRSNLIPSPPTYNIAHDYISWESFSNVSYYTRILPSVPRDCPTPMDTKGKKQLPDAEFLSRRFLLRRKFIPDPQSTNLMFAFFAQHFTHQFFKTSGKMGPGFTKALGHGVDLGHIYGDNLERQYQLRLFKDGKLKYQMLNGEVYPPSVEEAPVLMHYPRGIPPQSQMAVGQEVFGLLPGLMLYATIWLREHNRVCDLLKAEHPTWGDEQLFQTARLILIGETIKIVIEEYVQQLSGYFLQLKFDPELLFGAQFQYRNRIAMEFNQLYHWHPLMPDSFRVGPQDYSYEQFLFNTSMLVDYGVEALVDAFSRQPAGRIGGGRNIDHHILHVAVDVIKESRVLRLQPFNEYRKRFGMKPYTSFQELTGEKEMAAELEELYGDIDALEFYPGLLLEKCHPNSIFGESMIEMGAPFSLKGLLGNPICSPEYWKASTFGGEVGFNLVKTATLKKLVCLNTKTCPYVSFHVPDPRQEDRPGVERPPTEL
The experiment in a line: Cyclooxygenase-1 (COX-1) inhibitory effect (Cayman COX Inhibitor Screening Assay Kit, PGF2α ELISA). In kind it is biochemical. To be noted: in the presence of 50 μM of the compound; PGF2α production without compound regarded as 100%; read-out: COX inhibitory activity COX-1 (rate of COX-1 inhibition). The text has this: Cyclooxygenase-1 (COX-1) Inhibitory Effect
For the measurement of the COX-1 inhibitory activity of the compound of the Examples, a COX Inhibitor Screening Assay Kit manufactured by Cayman Chemical Company (Catalog Nos. 560101 and 560121) was used.
Before starting the measurement, a reaction buffer, heme, arachidonic acid, SnCl2, EIA buffer, a washing buffer, prostaglandin (PG)-screening EIA standard solution, PG-screening acetylcholinesterase (AchE), a tracer […], and PG-screening EIA antiserum were provided.
(1) Production of PGF2α by COX-1
A reaction solution containing the compound of the Examples (50 μM) and COX-1 was allowed to stand at 37° C. for 10 minutes, then 10 μl of arachidonic acid was added thereto, and the resultant mixture was allowed to stand at 37° C. for 2 minutes. After the reaction, 50 μl of 1 N hydrochloric acid was added to the reaction mixture to thereby stop the reaction, and 100 μl of a SnCl2 solution was added thereto. The resultant mixture was allowed to stand at room temperature for 5 minutes.
(2) Quantification of PGF2α by ELISA
50 μl of antiserum (rabbit anti-PGF2α antibody) was added to each of the wells of a 96-well plate coated with mouse anti-rabbit IgG. Then, 50 μl of a solution prepared by diluting the aforementioned reaction solution for the production of PGF2α to 2000-folds, and 50 μl of an AchE tracer were added sequentially to the wells, and the plate was allowed to stand at room temperature for 18 hours. Each well was washed 5 times with the washing buffer to remove excessive AchE tracer, and then 200 μl of Ellman reagent was added to each well. The plate was kept in a dark room for 60 minutes, and then, absorbance at 405 nm was measured.
(3) Calculation of Inhibitory Activity of the Compound of the Examples
A standard curve was produced using a PG-screening EIA standard solution, and the amount of PGF2α production was determined from the absorbance obtained in the above. The rate of COX-1 inhibition in the presence of 50 μM of the compound of the Examples was calculated.

Regarding `COc1ccc(-n2nc(C(=O)N3CCC[C@H]3CF)nc2-c2ccc(C)cn2)cn1` [Example 37, (2S)-1-[1-(6-Methoxy-3-pyridyl)-5-(5-methyl-2-pyridyl)-1H-1,2,4-triazole-3-carbonyl]-2-fluoromethylpyrrolidine], in assay [1], the half-maximal inhibitory concentration (IC50) (in general, the point on the concentration scale where inhibition reaches its midpoint) is 16 nM. Moreover, the inhibition (commonly the relative decrease from the control value, in per cent) at 50 µM in assay [2] worked out at 6.6%. The like results for `COc1ccc(-n2nc(C(=O)NC(C)(C)C)nc2-c2cnc(C)cn2)cn1` [Example 6, N-tert-Butyl-1-(6-methoxy-3-pyridyl)-5-(5-methyl-2-pyrazinyl)-1H-1,2,4-triazole-3-carboxamide] were, in that order, 170 nM and -15.8%.

For `COc1ccc(-n2nc(C(=O)N3CCC(F)(F)CC3)nc2-c2ccc(CO)cn2)cn1` [Example 41, 1-[5-(5-Hydroxymethyl-2-pyridyl)-1-(6-methoxy-3-pyridyl)-1H-1,2,4-triazole-3-carbonyl]-4,4-difluoropiperidine], the IC50 in assay [1] amounted to 220 nM. The inhibition at 50 µM in assay [2] worked out at 4.6%. Take `COc1ccc(-n2nc(C(=O)N3CCN(C)CC3)nc2-c2ccc(C)cn2)cn1` [Example 29, 1-[1-(6-Methoxy-3-pyridyl)-5-(5-methyl-2-pyridyl)-1H-1,2,4-triazole-3-carbonyl]-4-methylpiperazine]: the half-maximal inhibitory concentration (IC50) in assay [1] was 220 nM. Further, the inhibition at 50 µM in assay [2] is -23.1%.

`COc1ccc(-n2nc(C(=O)NC(C)(C)C)nc2-c2ccc(Cl)cn2)cn1` [Example 11, N-tert-Butyl-5-(5-chloro-2-pyridyl)-1-(6-methoxy-3-pyridyl)-1H-1,2,4-triazole-3-carboxamide]: the half-maximal inhibitory concentration (IC50) in assay [1] stood at 88 nM. On to `Cc1ccc(-c2nc(C(=O)NC(C)(C)C)nn2-c2ccc(C)nc2)nc1` [Example 35, N-tert-Butyl-1-(6-methyl-3-pyridyl)-5-(5-methyl-2-pyridyl)-1H-1,2,4-triazole-3-carboxamide], for which the IC50 in assay [1] amounted to 120 nM. In addition, in assay [2], the inhibition at 50 µM is -17.2%. The like results for `COc1ccc(-n2nc(C(=O)NC(C)(C)C)nc2-c2ccc(C#N)cn2)cn1` [Example 3, N-tert-Butyl-5-(5-cyano-2-pyridyl)-1-(6-methoxy-3-pyridyl)-1H-1,2,4-triazole-3-carboxamide] were, in that order, 160 nM and 19.5%. For the compound `COc1ccc(-n2nc(C(=O)NC(C)(C)C)nc2-c2ccccn2)cn1` [Example 1, N-tert-Butyl-1-(6-methoxy-3-pyridyl)-5-(2-pyridyl)-1H-1,2,4-triazole-3-carboxamide], the IC50 in assay [1] was 40 nM. In addition, the inhibition at 50 µM in assay [2] is 7.5%. `COc1ccc(-n2nc(C(=O)NC(C)(C)C)nc2-c2ccc(N)cn2)cn1` [Example 14, 5-(5-Amino-2-pyridyl)-1-(6-methoxy-3-pyridyl)-1H-1,2,4-triazole-3-carboxylic acid N-tert-butylamide]: the IC50 in assay [1] is 130 nM.

For the compound `COc1ccc(-n2nc(C(=O)N3CCOCC3)nc2-c2ccc(C)cn2)cn1` [Example 38, 4-[1-(6-Methoxy-3-pyridyl)-5-(5-methyl-2-pyridyl)-1H-1,2,4-triazole-3-carbonyl]morpholine], in assay [1], the IC50 stood at 250 nM. Moreover, in assay [2], the inhibition at 50 µM amounted to 0.9%. `COc1ccc(-n2nc(C(=O)NC3(C)CC3)nc2-c2ccc(C)cn2)cn1` [Example 44, N-(1-Methylcyclopropyl)-1-(6-methoxy-3-pyridyl)-5-(5-methyl-2-pyridyl)-1H-1,2,4-triazole-3-carboxamide]: the IC50 in assay [1] was determined as 220 nM. In the case of `COc1ccc(-n2nc(C(=O)NC(C)C)nc2-c2ccccn2)cn1` [Example 22, N-isoPropyl-1-(6-methoxy-3-pyridyl)-5-(2-pyridyl)-1H-1,2,4-triazole-3-carboxamide], in assay [1], the 50% inhibitory concentration (IC50) was found to be 530 nM.

For `COc1ccc(-n2nc(C(=O)NCC(C)(C)C)nc2-c2ccc(C)cn2)cn1` [Example 18, 1-(6-Methoxy-3-pyridyl)-5-(5-methyl-2-pyridyl)-1H-1,2,4-triazole-3-carboxylic acid N-neopentylamide], in assay [1], the IC50 was 13 nM.

These data come from US20080125409A1, “1,5-Diheterocycle-1H-Triazole Derivative” (DAIICHI PHARMACEUTICAL CO., LTD., priority 2004, published 2008).
